The record followed here is patent publication US5610174A, “Use of α1A -selective adrenoceptor agonists for the treatment of urinary incontinence” (priority 1995, dated 1997).

Read-outs that look alike come from different tables or passages of the source.

For experiment [1], the target named is T1, human dopamine D5 receptor (Homo sapiens, UniProt P21918).
T1 construct: expressed in transfected cells
The experiment in a line: Radioligand binding at human dopamine D5. As to the method: (§1) Other Dopamine receptors were prepared by known methods. (D1 : Dearry et al., Nature, 347, 72, (1990), deposited with the European Molecular Biological Laboratory (EMBL) Genbank as X55760; D3 : Sokoloff, P. et al., Nature, 347, 146 (1990), deposited with the European Molecular Biological Laboratory (EMBL) Genbank as X53944; D5 : Sunahara, R. K., et al., Nature, 350, 614 (1991), deposited with EMBL Genbank as X58454-HU HD 5DR).

The next experiment has as its target T2, human α2B adrenoceptor (Homo sapiens, UniProt P18089).
T2 sequence (P18089 1-450): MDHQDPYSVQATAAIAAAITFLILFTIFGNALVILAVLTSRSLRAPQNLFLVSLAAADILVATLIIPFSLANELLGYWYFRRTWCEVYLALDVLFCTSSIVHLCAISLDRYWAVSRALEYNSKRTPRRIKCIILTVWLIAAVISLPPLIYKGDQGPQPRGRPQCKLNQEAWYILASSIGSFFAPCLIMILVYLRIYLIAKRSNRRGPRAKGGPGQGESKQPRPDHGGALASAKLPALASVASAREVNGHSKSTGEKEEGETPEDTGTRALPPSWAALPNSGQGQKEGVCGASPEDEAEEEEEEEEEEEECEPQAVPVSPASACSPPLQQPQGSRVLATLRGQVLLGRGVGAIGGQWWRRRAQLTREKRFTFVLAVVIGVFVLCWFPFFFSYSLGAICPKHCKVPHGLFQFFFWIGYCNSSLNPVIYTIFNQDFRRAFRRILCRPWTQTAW
Description: Radioligand binding ([3H]rauwolscine) at cloned human α2B. On the set-up: expressed in transfected cells. As to the method:
(§2) To determine the affinity of compounds at the α2 receptors, LM(tk-) cell lines stably transfected with the genes encoding the α2A, α2B, and α2C receptors were used. Cell lysates were prepared as described above (see Radioligand Binding Assays), and suspended in 25 mM glycylglycine buffer (pH 7.6 at room temperature). Equilibrium competition binding assays were performed using [^3 H] rauwolscine (0.5 nM), and nonspecific binding was determined by incubation with 10 μM phentolamine. The bound radioligand was separated by filtration through GF/B filters using a cell harvester.

In experiment [2] the target is T3, human dopamine D2 receptor (Homo sapiens, UniProt P14416).
T3 construct: expressed in transfected cells; host or cells: COS-7 (plasmid pcEXV-D2, ATCC 75344)
T3 sequence (P14416 whole entry): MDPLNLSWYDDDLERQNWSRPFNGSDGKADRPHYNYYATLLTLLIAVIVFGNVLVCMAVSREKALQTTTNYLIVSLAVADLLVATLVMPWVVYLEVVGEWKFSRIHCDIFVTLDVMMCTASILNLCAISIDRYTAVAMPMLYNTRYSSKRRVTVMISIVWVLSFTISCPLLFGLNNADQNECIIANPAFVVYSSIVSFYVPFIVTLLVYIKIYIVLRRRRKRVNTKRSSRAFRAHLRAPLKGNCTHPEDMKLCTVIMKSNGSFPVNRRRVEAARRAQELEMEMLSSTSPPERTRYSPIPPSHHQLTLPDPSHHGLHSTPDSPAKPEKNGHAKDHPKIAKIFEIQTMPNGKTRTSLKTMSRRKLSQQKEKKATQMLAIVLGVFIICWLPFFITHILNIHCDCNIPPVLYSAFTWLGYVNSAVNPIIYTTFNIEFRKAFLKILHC
Description: Radioligand binding at human dopamine D2. The conditions noted are these: [3H]spiperone; for Ki: read-out: pKi D2 (converted). As to the method:
Human Dopamine D2 Receptors
The affinity of compounds at the D2 receptor were determined using membrane preparations from COS-7 cells transfected with the gene encoding the human D2 receptor. The coding region for the human D2 receptor was obtained from a human striatum cDNA library, and cloned into the cloning site of PCDNA 1 eukariotic expression vector. The plasmid DNA for the D2 receptor is designated pcEXV-D2, and was deposited on Nov. 6, 1992 under ATCC Accession No. 75344. This construct was transfected into COS-7 cells by the DEAE-dextran method. Cells were harvested after 72 hours and lysed by sonication in 5mM Tris-HCl, 5 mM EDTA, pH 7.5. The cell lysates were centrifuged at 1000 rpm for 5 minutes at 4° C., and the supernatant was centrifuged at 30,000×g for 20 minutes at 4° C. The pellet was suspended in 50 mM Tris-HCl (pH 7.4) containing 1 mM EDTA, 5 mM KCl, 1.5 mM CaCl2, 4 mM MgCl2, and 0.1% ascorbic acid. The cell lysates were incubated with [3H]spiperone (2 nM), using 10 μM (+)Butaclamol to determine nonspecific binding.

A further experiment has as its target T4, human 5-HT1Dβ receptor (Homo sapiens, UniProt P28222).
T4 construct: expressed in transfected cells; host or cells: LM(tk-) clonal cell line, designated Ltk-11, ATCC CRL 10422 (cell lysates)
The experiment in a line: Radioligand binding at human 5-HT1Dβ. As to the method:
Human Serotonin Receptors
5-HT1Dα, 5-HT1Dβ, 5-HT1E, 5-HT1F, and 5-HT7 Receptors: The cell lysates of LM(tk-) clonal cell line stably transfected with the genes encoding each of these 5-HT receptor-subtypes were prepared as described above. The cell line for the 5-HT1Dαreceptor, designated as Ltk-8-30-84, was deposited on Apr. […] The cell for the 5-HT1Dβ receptor, designated as Ltk-11, was deposited on Apr. […] The cell line for the 5-HT1E receptor, designated 5-HT1E -7, was deposited on Nov. […] The cell line for the 5-HT1F receptor, designated L-5-HT1F, was deposited on Dec. […] The cell line for the 5-HT7 receptor, designated as L-5-HT-4B, was deposited on Oct. […] These preparations were suspended in 50 mM Tris-HCl buffer (pH 7.4 at 37° C.) containing 10 mM MgCl2, 0.2 mM EDTA, 10 μM pargyline, and 0.1% ascorbate. […] Nonspecific binding was determined in the presence of 10 μM serotonin. The bound radioligand was separated by filtration through GF/B filters using a cell harvester.

For experiment [3], the target named is human dopamine D3 receptor. Description: Radioligand binding at human dopamine D3. As to the method: as §1
In another experiment the target is T5, human α2C adrenoceptor (Homo sapiens, UniProt P18825).
T5 construct: expressed in transfected cells; host or cells: LM(tk-)
T5 sequence (P18825 1-462): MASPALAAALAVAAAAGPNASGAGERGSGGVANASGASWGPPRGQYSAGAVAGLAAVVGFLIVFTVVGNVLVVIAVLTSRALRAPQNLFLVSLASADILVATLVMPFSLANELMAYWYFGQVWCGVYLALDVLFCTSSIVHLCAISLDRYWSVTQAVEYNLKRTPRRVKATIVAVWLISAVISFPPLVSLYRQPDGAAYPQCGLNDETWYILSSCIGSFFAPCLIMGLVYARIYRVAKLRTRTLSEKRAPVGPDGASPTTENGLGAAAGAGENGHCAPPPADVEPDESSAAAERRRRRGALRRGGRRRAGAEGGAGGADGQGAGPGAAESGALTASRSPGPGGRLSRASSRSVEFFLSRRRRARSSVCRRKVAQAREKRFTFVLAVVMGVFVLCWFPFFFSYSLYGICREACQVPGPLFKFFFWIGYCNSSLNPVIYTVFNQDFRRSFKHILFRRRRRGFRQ
Description: Radioligand binding ([3H]rauwolscine) at cloned human α2C. As to the method: as §2

The mark [4] stands for this setting: Table 3, agonists, read-out: pKi α2C (converted).

T1 sequence (P21918 whole entry): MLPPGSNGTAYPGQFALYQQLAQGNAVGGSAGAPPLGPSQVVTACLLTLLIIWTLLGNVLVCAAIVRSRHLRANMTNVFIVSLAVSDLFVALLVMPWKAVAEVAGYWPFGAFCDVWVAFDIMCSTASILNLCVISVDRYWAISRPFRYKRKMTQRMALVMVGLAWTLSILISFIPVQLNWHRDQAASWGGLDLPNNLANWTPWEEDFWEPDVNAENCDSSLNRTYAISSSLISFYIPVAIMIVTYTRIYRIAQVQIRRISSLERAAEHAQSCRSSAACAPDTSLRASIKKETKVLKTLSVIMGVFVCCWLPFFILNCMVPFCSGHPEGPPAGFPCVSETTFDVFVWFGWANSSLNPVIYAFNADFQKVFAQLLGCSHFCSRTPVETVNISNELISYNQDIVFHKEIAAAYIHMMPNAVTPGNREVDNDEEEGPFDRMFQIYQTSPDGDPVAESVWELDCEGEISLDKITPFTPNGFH
T4 sequence (P28222 whole entry): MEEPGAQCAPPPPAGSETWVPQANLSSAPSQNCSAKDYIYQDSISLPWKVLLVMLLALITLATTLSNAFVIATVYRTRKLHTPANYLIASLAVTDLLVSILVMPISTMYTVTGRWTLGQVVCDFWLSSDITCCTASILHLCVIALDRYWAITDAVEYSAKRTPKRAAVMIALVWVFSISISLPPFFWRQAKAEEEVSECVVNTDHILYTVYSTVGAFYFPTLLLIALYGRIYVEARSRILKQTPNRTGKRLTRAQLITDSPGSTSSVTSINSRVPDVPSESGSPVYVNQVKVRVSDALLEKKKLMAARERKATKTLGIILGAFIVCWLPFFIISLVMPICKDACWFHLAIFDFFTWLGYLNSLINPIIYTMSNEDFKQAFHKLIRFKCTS

Take `CS(=O)(=O)Nc1c(O)ccc2c1CCCC2C1=NCCN1` (racemic) [Compound A-61603, (±)-N-[5-(4,5-Dihydro-1H-imidazol-2-yl)-2-hydroxy-5,6,7,8-tetra-hydronaphthalen-1-yl]methanesulfonamide]: the Ki is 15.8 µM in experiment [1]; 0.316 µM on human α2B adrenoceptor (Table 3, agonists, read-out: pKi α2B (converted)); 10 µM in experiment [2]; 6.31 µM at human 5-HT1Dβ receptor ([3H]serotonin, read-out: pKi 5-HT1Dβ (converted)); 0.631 µM on human α2C adrenoceptor (setting [4]). In experiment [3], the “pKi D3” value was found to be 5.8.

As for `COc1ccc(OC)c(C(O)CN)c1` (racemic) [ST-1059, (±)-2-Amino-1-(2, 5 dimethoxyphenyl) ethanol], the figures for the Ki on human α2B adrenoceptor and on human α2C adrenoceptor were 1.58 µM and 3.98 µM, respectively.

Turning to `COc1ccc(SC)c2c1C[C@@H]1[C@@H](C2)OCCN1C` (relative stereo) [SDZ NVI-085, (±)-trans-4-Methyl-6-methoxy-9-thiomethoxy-3,4,4a, 5,10,10a-hexahydro-2H-naphtho[2,3-b][1,4]oxazine], the Ki in experiment [1] (read-out: pKi D5 (converted)) was 20 µM; at human α2B adrenoceptor, 0.0631 µM; in experiment [2] it was 3.16 µM; at human 5-HT1Dβ receptor it was 0.02 µM; at human α2C adrenoceptor (setting [4]) it was 0.794 µM. Moreover, the “pKi D3” value in experiment [3] worked out at 6.0.

For `CN[C@@H](C)[C@H](O)c1ccccc1` [(-)-ephedrine], the Ki is 2.51 µM on human α2B adrenoceptor and 7.94 µM at human α2C adrenoceptor.

With `C[C@H](N)[C@H](O)c1ccccc1` [(-)-norephedrine], the Ki was 0.251 µM at human α2B adrenoceptor and 3.16 µM at human α2C adrenoceptor.

On to `CNCCc1ccc(O)c(NS(C)(=O)=O)c1` [SK&F 102652], for which, in experiment [1], the “pKi D5” value turned out to be 4.8. Besides, the “pKi D2” value in experiment [2] worked out at 6.7. In addition, the “pKi 5-HT1Dβ” value on human 5-HT1Dβ receptor ([3H]serotonin) was determined as 5.5. For the same compound, the “pKi D3” value in experiment [3] is 6.7.
